Results taken from patent US11352350B2, “IRAK degraders and uses thereof” (Kymera Therapeutics, Inc., priority 2018, dated 2022).
Where two headings read alike, the source gives them in different places.

Legend:
OCI-LY10 [1] = assay: OCI-LY10 viability, CTG; assay type: cell-based
OCI-LY19 = OCI-LY19 viability, CTG; assay type: cell-based
IRAK4 [2] = biological target: T1, IRAK4 (Homo sapiens (Human), UniProt Q9NWZ3); assay: IRAK4 MSD degradation in OCI-LY10; assay type: cell-based; conditions: MSD
Summary of the method: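 OCI-LY10 cells treated with 8-point 1:3 dilutions (top 1 to 10 μM final) for 4 to 24 h at 37° C. Lysate IRAK4 measured by MSD sandwich immunoassay (2H9 capture, Y279 detection, SULFO-TAG anti-rabbit). DC50 from three-parameter logistic fit.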

IRAK4 [3] = biological target: T1, IRAK4; assay: hPBMC IRAK4 degradation flow assay; assay type: cell-based; conditions: hPBMC monocyte, 20 hr, flow assay; read-out: IRAK4 degradation in hPBMC monocyte at 20 hr: Average external Abs DC50
Summary of the method: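 Thawed human PBMCs treated with 10-point, 5-fold compound dilutions (0.1% DMSO) at 37° C. for 20 hours or 4 hours. IRAK4 measured by flow MFI in CD14+ monocytes and CD14− lymphocytes, normalized to DMSO and 10 μM 20-hour control; DC50 and max degradation from 4-parameter logistic fit.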

SU-DHL2 = SU-DHL2 viability, CTG; assay type: cell-based
U2932 = U2932 viability, CTG; assay type: cell-based
IRAK4 [4] = biological target: T1, IRAK4; assay: IRAK4 degradation in OCI-LY10 (DC50); assay type: cell-based
IL-6 = IL-6 secretion in hPBMC using R848 stimulation; assay type: cell-based, human
IRAK4 [5] = biological target: T1, IRAK4; assay: IRAK4 degradation in OCI-LY10 tumor xenograft; assay type: in vivo; conditions: for IRAK4 ↓ (% Control): OCI-LY10 tumor xenograft, sample time 24 h
IRAK4 [6] = biological target: T1, IRAK4; assay: IRAK4 WB degradation (DC50); assay type: cell-based
OCI-LY10 tumor xenograft = assay: OCI-LY10 tumor xenograft, tumor volume; assay type: in vivo; conditions: PO
SU-DHL6 = SU-DHL6 viability, CTG; assay type: cell-based
OCI-LY10 [7] = assay: CTG Cell Viability Assay - OCI-LY10; assay type: cell-based, human; conditions: OCI-LY10, 4 days, read-out: CTG Cell Viability Assay - OCI-LY10: Average external-IC50
Summary of the method: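 OCI-LY10 cells exposed to 9-dose, 1:3 dilutions from 10 μM top (0.2% DMSO) for 4 days at 37° C, 5% CO2. Viability by CellTiter-Glo luminescence; IC50 from three-parameter logistic fit.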

AIOLOS [8] = biological target: T2, AIOLOS (Homo sapiens (Human), UniProt Q96SW2+Q9UKT9); assay: Aiolos degradation in OCI-LY10 tumor xenograft; assay type: in vivo; conditions: sample time 24 h
IFIT3 = assay: Interferon response IFIT3 in OCI-LY10 tumor xenograft; assay type: in vivo; conditions: sample time 24 h
IFIT1 = assay: Interferon response IFIT1 in OCI-LY10 tumor xenograft; assay type: in vivo; conditions: sample time 24 h
IKAROS [9] = biological target: T3, IKAROS (Homo sapiens (Human), UniProt Q13422+Q96SW2); assay: Ikaros degradation in OCI-LY10 tumor xenograft; assay type: in vivo; conditions: sample time 24 h
OCI-LY3 = OCI-LY3 viability, CTG; assay type: cell-based; conditions: Homo sapiens, MYD88 MUT
IKAROS [10] = biological target: T3, IKAROS; assay: IKAROS degradation in OCI-LY10 (DC50); assay type: cell-based
AIOLOS [11] = biological target: T2, AIOLOS; assay: AIOLOS degradation in OCI-LY10 (DC50); assay type: cell-based
C57BL/6 mice = assay: IMQ (imiquimod) induced psoriasis; assay type: in vivo, mouse; conditions: oral dosing; FIG. 36
Procedure: A model of psoriasis includes the effects of degrader on epidermal hyperplasia development induced by daily topical application of 5% imiquimod in C57BL/6 mice. On each of Days 0 to 6, mice had 5% imiquimod cream administered topically on left ear and shaved back skin. Control mice (no imiquimod group) received control cream without imiquimod. […] The last dosing was on Day 6 for all mice. All dosing was at the same time (+/−1 hour) each day. For the BID groups there was no less than 9 and no more than 15 hours between doses. Readouts were body weight, PASI score, and skin thickness. Body weight was measured 3 times/week, starting on Day −3. Once on each of Days 0, 3, 5, 6, and 7, back and ear thickness was measured with calipers. Each measurement was performed blind, by a person unaware of the group or previous measurement. On Day 7, approximately 24 hours after the last imiquimod application, all mice were euthanized and blood collected via cardiac bleed into EDTA tubes. Plasma was isolated, and frozen. Tissues of interest were removed, weighed, recorded and frozen.

[12] = OCI-LY10, 4 hrs, read-out: IRAK4 MSD degradation in OCI-LY10 at 4 hrs: Average external-Abs DC50
[13] = OCI-LY10, 24 hrs, read-out: IRAK4 MSD degradation in OCI-LY10 at 24 hrs: Average external-Abs DC50
[14] = Homo sapiens, OCI-Ly10, MYD88 MUT, read-out: OCI-LY10 CTG IC50
[15] = Homo sapiens, OCI-LY19, MYD88 WT, read-out: OCI-LY19 CTG IC50
[16] = Homo sapiens, SU-DHL-2, MYD88 MUT, read-out: SU-DHL2 CTG IC50
[17] = Homo sapiens, U2932, MYD88 WT, read-out: U2932 CTG IC50
[18] = Homo sapiens, SU-DHL-6, MYD88 WT, read-out: SU-DHL6 CTG IC50

T2 sequence (Q9UKT9 whole entry): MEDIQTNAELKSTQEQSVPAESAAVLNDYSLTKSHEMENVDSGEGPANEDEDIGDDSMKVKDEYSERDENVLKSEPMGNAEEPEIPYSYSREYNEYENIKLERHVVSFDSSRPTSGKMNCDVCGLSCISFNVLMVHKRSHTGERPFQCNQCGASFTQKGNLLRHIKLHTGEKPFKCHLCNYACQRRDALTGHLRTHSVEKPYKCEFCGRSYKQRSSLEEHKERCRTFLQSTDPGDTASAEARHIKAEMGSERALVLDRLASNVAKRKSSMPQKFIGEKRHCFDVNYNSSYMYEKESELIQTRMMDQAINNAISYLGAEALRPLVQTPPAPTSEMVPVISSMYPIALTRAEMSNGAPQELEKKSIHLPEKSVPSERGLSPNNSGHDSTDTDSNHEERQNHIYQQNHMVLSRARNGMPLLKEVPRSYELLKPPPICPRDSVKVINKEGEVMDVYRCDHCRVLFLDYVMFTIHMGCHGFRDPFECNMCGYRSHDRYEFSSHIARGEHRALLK
T2 sequence (Q96SW2 whole entry): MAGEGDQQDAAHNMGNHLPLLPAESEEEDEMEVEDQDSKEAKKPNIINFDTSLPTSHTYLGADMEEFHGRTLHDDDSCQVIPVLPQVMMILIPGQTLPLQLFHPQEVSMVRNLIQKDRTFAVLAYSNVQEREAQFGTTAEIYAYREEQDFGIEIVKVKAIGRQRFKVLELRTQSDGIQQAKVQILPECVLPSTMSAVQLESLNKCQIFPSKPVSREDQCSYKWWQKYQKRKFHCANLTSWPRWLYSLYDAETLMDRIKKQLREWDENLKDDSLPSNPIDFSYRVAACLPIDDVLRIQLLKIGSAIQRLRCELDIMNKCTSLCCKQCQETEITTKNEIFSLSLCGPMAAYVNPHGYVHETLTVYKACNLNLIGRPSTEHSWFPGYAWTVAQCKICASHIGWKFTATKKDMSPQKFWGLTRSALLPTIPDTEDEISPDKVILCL
T2 sequence (Q16531 whole entry partner): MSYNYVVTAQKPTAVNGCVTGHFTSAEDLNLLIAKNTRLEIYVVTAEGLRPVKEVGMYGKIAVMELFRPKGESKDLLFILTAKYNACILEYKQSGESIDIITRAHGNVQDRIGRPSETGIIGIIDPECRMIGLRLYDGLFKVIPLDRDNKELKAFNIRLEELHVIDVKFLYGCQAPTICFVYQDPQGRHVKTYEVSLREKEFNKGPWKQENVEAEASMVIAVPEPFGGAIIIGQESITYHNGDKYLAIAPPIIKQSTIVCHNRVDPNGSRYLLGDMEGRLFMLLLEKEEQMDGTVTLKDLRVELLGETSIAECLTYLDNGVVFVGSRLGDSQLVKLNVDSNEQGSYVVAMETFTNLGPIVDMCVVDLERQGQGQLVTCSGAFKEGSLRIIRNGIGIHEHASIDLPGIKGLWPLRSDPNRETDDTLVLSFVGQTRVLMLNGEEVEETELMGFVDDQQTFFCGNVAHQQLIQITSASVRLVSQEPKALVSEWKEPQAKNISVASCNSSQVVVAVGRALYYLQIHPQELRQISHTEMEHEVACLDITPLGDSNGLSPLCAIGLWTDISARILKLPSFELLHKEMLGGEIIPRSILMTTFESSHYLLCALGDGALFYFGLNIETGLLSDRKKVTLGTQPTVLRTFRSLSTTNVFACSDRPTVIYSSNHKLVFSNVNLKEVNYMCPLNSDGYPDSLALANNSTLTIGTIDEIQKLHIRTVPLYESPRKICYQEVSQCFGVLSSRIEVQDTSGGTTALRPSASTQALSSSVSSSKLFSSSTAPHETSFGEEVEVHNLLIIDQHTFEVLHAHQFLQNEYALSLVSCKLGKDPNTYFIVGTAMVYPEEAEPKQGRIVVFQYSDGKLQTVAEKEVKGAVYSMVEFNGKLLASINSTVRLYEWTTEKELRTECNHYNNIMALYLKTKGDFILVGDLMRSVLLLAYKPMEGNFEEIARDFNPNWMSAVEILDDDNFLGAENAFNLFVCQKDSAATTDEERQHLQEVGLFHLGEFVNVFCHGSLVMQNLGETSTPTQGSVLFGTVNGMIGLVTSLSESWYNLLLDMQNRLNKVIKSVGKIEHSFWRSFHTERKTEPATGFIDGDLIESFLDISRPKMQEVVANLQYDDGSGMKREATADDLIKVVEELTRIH
T1 sequence (Q9NWZ3 whole entry): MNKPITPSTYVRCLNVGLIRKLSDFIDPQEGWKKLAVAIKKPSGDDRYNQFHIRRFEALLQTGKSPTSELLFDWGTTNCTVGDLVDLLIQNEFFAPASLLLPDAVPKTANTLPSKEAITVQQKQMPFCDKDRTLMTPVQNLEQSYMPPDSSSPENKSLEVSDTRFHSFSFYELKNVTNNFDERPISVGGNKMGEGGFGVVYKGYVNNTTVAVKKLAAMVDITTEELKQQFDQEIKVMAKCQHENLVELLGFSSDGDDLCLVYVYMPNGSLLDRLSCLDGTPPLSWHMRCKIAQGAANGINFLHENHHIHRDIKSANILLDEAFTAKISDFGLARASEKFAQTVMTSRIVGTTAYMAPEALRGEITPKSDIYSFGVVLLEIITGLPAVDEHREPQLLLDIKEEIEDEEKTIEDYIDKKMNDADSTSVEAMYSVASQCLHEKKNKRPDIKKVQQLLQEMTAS
T3 sequence (Q13422 whole entry): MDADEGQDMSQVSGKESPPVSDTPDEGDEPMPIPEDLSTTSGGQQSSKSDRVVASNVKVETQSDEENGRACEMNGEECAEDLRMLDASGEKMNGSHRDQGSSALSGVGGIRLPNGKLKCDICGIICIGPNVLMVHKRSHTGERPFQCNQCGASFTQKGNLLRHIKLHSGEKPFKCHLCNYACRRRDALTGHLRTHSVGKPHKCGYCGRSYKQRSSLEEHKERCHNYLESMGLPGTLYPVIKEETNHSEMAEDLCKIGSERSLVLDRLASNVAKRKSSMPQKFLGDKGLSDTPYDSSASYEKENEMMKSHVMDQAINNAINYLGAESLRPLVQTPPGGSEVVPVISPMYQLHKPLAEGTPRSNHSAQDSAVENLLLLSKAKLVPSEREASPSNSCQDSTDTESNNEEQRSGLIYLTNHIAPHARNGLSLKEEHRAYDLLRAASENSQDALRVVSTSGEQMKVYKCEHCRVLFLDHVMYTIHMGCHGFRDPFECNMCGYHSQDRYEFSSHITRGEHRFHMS
T3 sequence (Q96SW2 whole entry): as the sequence (Q96SW2 whole entry) above
T3 sequence (Q16531 whole entry partner): as the sequence (Q16531 whole entry partner) above

Cn1c(=O)n([C@H]2CCC(=O)NC2=O)c2cccc(CCCOC3CCN(CC4CCC(n5cc(NC(=O)c6cnn7ccc(N8CCOCC8)nc67)c(C(F)F)n5)CC4)CC3)c21 (stereo partly drawn) [I-257, N-[3-(difluoromethyl)-1-[4-[[4-[3-[1-[(3S)-2,6-dioxo-3-piperidyl]-3-methyl-2-oxo-benzimidazol-4-yl]propoxy]-1-piperidyl]methyl]cyclohexyl]pyrazol-4-yl]-5-morpholino-pyrazolo[1,5-a]pyrimidine-3-carboxamide]
IC50 (OCI-LY10 [1]; MYD88 MUT, read-out: OCI-LY10 CTG IC50): 1200 nM
IC50 (OCI-LY10 [1]; MYD88 Mutant Lines, read-out: OCI-LY10 Viability, CTG IC50): 1200 nM
IC50 (OCI-LY19; MYD88 WT Lines, read-out: OCI-LY19 Viability, CTG IC50): 4700 nM
IC50 (OCI-LY19; MYD88 WT, read-out: OCI-LY19 CTG IC50): 4700 nM
DC50 (IRAK4 [2]; [12]): < 10 nM
DC50 (IRAK4 [2]; [13]): < 10 nM
DC50 (IRAK4 [3]): < 10 nM
IC50 (SU-DHL2; MYD88 MUT, read-out: SU-DHL2 CTG IC50): 6900 nM
IC50 (SU-DHL2; MYD88 Mutant Lines, read-out: SU-DHL2 Viability, CTG IC50): 6900 nM
IC50 (U2932; MYD88 WT Lines, read-out: U2932 Viability, CTG IC50): > 10000 nM
IC50 (U2932; MYD88 WT, read-out: U2932 CTG IC50): 10000 nM
DC50 (IRAK4 [4]; read-out: IRAK4 Degradation in OCI-LY10, DC50): 5 nM
DC50 (IRAK4 [4]; read-out: IRAK4 OCI-LY10 DC50): 5 nM
IC50 (IL-6; hPBMC, R848 as stim, t = 20 h): < 1 nM
IRAK4 degradation in OCI-LY10 tumor xenograft (IRAK4 [5]; PO, BID (FIG. 18)): 90%
DC50 (IRAK4 [6]): 3 nM
Regression of OCI-LY10 tumor xenograft (OCI-LY10 tumor xenograft; BID, 150 mg/kg (FIG. 18)): without regression
Regression of OCI-LY10 tumor xenograft (OCI-LY10 tumor xenograft; BID, 150 mg/kg (FIG. 18), listed as 1-257): without causing regression
IC50 (SU-DHL6; MYD88 WT Lines, read-out: SU-DHL6 Viability, CTG IC50): 5600 nM
IC50 (SU-DHL6; MYD88 WT, read-out: SU-DHL6 CTG IC50): 5600 nM
IC50 (OCI-LY10 [7]): > 1000 nM

O=C1CCC(N2C(=O)c3cccc(NCCCOC4CCN(C[C@H]5CC[C@H](n6cc(NC(=O)c7cnn8ccc(N9CCOCC9)nc78)c(C(F)F)n6)CC5)CC4)c3C2=O)C(=O)N1 (stereo partly drawn) [I-208]
IC50 (OCI-LY10 [1]; [14]): 36 nM
IC50 (OCI-LY19; [15]): 1700 nM
DC50 (IRAK4 [2]; [12]): 10 to 100 nM
IC50 (SU-DHL2; [16]): 366 nM
IC50 (U2932; [17]): 1800 nM
DC50 (IRAK4 [4]; read-out: IRAK4 OCI-LY10 DC50): 20 nM
IRAK4 ↓ (% Control) (IRAK4 [5]; 24 mg/kg PO QD): 57.8 % Control
IRAK4 ↓ (% Control) (IRAK4 [5]; 72 mg/kg PO QD): 78.7 % Control
IRAK4 ↓ (% Control) (IRAK4 [5]; 240 mg/kg PO QD): 86.5 % Control
Aiolos ↓ (% Control) (AIOLOS [8]; 24 mg/kg PO QD): 30.9 % Control
Aiolos ↓ (% Control) (AIOLOS [8]; 72 mg/kg PO QD): 62.4 % Control
Aiolos ↓ (% Control) (AIOLOS [8]; 240 mg/kg PO QD): 68.6 % Control
Interferon Response IFIT3 Increase (Fold) (IFIT3; 24 mg/kg PO QD): >43.1 Fold
Interferon Response IFIT3 Increase (Fold) (IFIT3; 72 mg/kg PO QD): >64.0 Fold
Interferon Response IFIT3 Increase (Fold) (IFIT3; 240 mg/kg PO QD): >59.7 Fold
DC50 (IRAK4 [6]): 130 nM
Interferon Response IFIT1 Increase (Fold) (IFIT1; 24 mg/kg PO QD): >24.4 Fold
Interferon Response IFIT1 Increase (Fold) (IFIT1; 72 mg/kg PO QD): >41.5 Fold
Interferon Response IFIT1 Increase (Fold) (IFIT1; 240 mg/kg PO QD): >38.7 Fold
Regression of OCI-LY10 tumor xenograft (OCI-LY10 tumor xenograft; single agent, QD, 24, 72, and 240 mg/kg (FIG. 21)): with regression
Regression of OCI-LY10 tumor xenograft (OCI-LY10 tumor xenograft; single agent, QD, 24, 72, and 240 mg/kg (FIG. 21), listed as 1-208): drives regression
Ikaros ↓ (% Control) (IKAROS [9]; 24 mg/kg PO QD): 46.3 % Control
Ikaros ↓ (% Control) (IKAROS [9]; 72 mg/kg PO QD): 71.0 % Control
Ikaros ↓ (% Control) (IKAROS [9]; 240 mg/kg PO QD): 81.2 % Control
IC50 (OCI-LY3): 3000 nM
IC50 (SU-DHL6; [18]): 833 nM
IC50 (OCI-LY10 [7]; Homo sapiens, OCI-Ly10, 96 h): < 50 nM
DC50 (IKAROS [10]): 3 nM
DC50 (AIOLOS [11]): < 3 nM

Cn1c(=O)n(C2CCC(=O)NC2=O)c2cccc(C#CCOC3CCN(C[C@H]4CC[C@H](n5cc(NC(=O)c6cnn7ccc(N8C[C@H]9C[C@@H]8CO9)nc67)c(C(F)F)n5)CC4)CC3)c21 (stereo partly drawn) [I-417, N-[3-(difluoromethyl)-1-[4-[[4-[3-[1-(2,6-dioxo-3-piperidyl)-3-methyl-2-oxo-benzimidazol-4-yl]prop-2-ynoxy]-1-piperidyl]methyl]cyclohexyl]pyrazol-4-yl]-5-[(1R,4R)-2-oxa-5-azabicyclo[2.2.1]heptan-5-yl]pyrazolo[1,5-a]pyrimidine-3-carboxamide]
skin thickening in mice treated with topical imiquimod (C57BL/6 mice): significantly reduced skin thickening
IC50 (IL-6; Homo sapiens, 20 h, read-out: IL-6 Secretion in hPBMC, R848 as stim, t = 20 h: IC50): < 1 nM
IC50 (OCI-LY10 [7]; Homo sapiens, 96 h): > 1000 nM

CN(CCCOCCNc1cccc2c1C(=O)N(C1CCC(=O)NC1=O)C2=O)C[C@H]1CC[C@H](n2cc(NC(=O)c3coc(-c4ccnc(NCC5CC5)c4)n3)c(C(F)F)n2)CC1 (stereo partly drawn) [I-168]
IC50 (OCI-LY10 [1]; [14]): 31 nM
IC50 (OCI-LY19; [15]): 430 nM
DC50 (IRAK4 [2]; [12]): 10 to 100 nM
DC50 (IRAK4 [2]; [13]): < 10 nM
IC50 (SU-DHL2; [16]): 64 nM
IC50 (U2932; [17]): 410 nM
DC50 (IRAK4 [4]; read-out: IRAK4 OCI-LY10 DC50): 20 nM
DC50 (IRAK4 [6]): 78 nM
IC50 (OCI-LY3): 290 nM
IC50 (SU-DHL6; [18]): 1900 nM
IC50 (OCI-LY10 [7]; Homo sapiens, OCI-Ly10, 96 h): < 50 nM
DC50 (IKAROS [10]): 5 nM
DC50 (AIOLOS [11]): 5 nM
